How the values were obtained:
C5a-induced neutropenia = C5a-induced neutropenia after topical administration; assay type: in vivo; conditions: topical 10 mg/per rat in 50% propylene glycol and 50% distilled H2O; C5a 2 μg/kg i.v.
Method: Female Wistar rats weighing between 200-250 g were used for in vivo testing of all C5a receptor antagonists. Rats were anaesthetized using the procedure described above, and transferred on to a heating pad to ensure that body temperature was maintained throughout the experiment. A catheter was inserted in the femoral vein, secured with a suture and flushed with 100 μL of heparinised saline. Rats were dosed with either the antagonist or vehicle, intravenously (1 mg kg^−1 in 200 μL saline containing 10% ethanol, 10 min prior to LPS challenge) or topically ([…] challenge) Rats were infused i.v via the femoral catheter with either LPS (1 mg kg^−1 i.v in 100 μL saline), recombinant human C5a (2 μgkg^−1 in 100 μL), or vehicle control 10 minutes after the iv administration or 60 min after topical administration, of antagonist or vehicle control. All agents infused i.v were injected over a 2 min period, and were followed with a subsequent injection of 100 μL of saline to ensure complete delivery of the drug.
Whole blood samples (0.1 mL) were collected from the tail vein at the time of drug and LPS or C5a administration. […] The number of PMNs was counted on a haemocytometer. The number of cells at each time point was calculated as a percentage of the total number of cells at time zero, prior to complement challenge or LPS. […]

[1] = system: lower limb ischemia-reperfusion (I/R); assay: Bilateral hindlimb ischemia-reperfusion injury in rats
Method: Rats were subjected to 2 hours bilateral hindlimb ischemia and 4 hours reperfusion. […] (1 mg/kg) i.v., either 10 min before ischemia or 10 min prior to reperfusion, or orally (10 mg/kg) 30 min prior to ischemia. Levels of circulating creatine kinase (CK), lactate dehydrogenase (LDH), alanine and aspartate aminotransferase (ALT/AST), creatinine, blood urea nitrogen (BUN), polymorphonuclear leukocytes (PMNs) and calcium (Ca^++) and potassium (K^+) ions were determined. These biochemical indices are known to reflect tissue or organ injury following I/R events. Other parameters measured included urinary protein levels, muscle edema and myeloperoxidase (MPO) concentrations in the lung, liver and muscle along with liver homogenate TNF-α concentrations.
The study was performed in accordance with guidelines from the National Health & Medical Research Council of Australia, and the experimental protocol approved by the University of Queensland Animal Ethics Committee. Female Wistar rats weighing 250-300 g were fasted overnight before being anaesthetized with the i.p. injection of 6 mg/kg xylazine and 120 mg/kg ketamine. Anesthesia was maintained throughout the study by additional injections of ketamine. […] Bilateral hindlimb ischemia was then induced through the application of latex o-rings (marking rings; Hayes Veterinary Supplies, Brisbane, Australia) above the greater trochanter of each hind limb. Following 2 hours of ischemia, the latex rings were cut and removed and limbs allowed to reperfuse for 4 hours. Six experimental groups were used: • (a) sham-operated, • (b) ischemia-only, • (c) I/R-only, • (d) I/R+C5a antagonist (1 mg/kg, i.v.) administered 10 min prior to ischemia, • (e) I/R+C5a antagonist (10 mg/kg, p.o.) administered 30 min prior to ischemia, and • (f) I/R+C5a antagonist (1 mg/kg, i.v.) administered 10 min prior to reperfusion.
All other groups underwent 2 hours of ischemia and 4 hours of reperfusion. Sham-operated, ischemia-only and I/R groups were infused with 7% ethanol/saline 10 min prior to ischemia, instead of drug. Blood was collected throughout the study from the tail vein, and serum or plasma was stored at either 4° C. or −20° C. for later biochemical assays. Urine was collected over the last hour of the study for the determination of urinary protein levels. At the completion of the experiment, rats were euthanased, and sections of the lungs, liver and gastrocnemius muscle removed and weighed for edema, neutrophil accumulation and liver TNF-α studies.
All experimental results are expressed as means±standard error of the mean (SEM). Data analysis was performed using GraphPad Prism 3.0 software (GraphPad Software, Inc. USA). Statistical comparisons were made to sham-operated and I/R-only groups, using a one-way analysis of variance followed by a Dunnett comparison post-test analysis. Statistical significance was assessed at P<0.05.
Circulating levels of creatine kinase (CK) were measured in serum samples taken immediately after ischemia, following 1, 2 and 3 hours reperfusion, and at the completion of the study using a […] kit (Sigma, St. Louis, USA) according to the manufacturer's instructions. Serum was also taken 10 min after tourniquet release for CK measurement in I/R-only animals. A 1:5 dilution was used for samples taken after 2 hours reperfusion.

[2] = I/R + 1 mg/kg i.v. pre-ischemia, 4 hours reperfusion
[3] = I/R + 1 mg/kg i.v. pre-reperfusion, 4 hours reperfusion
[4] = I/R + 10 mg/kg p.o. pre-ischemia, 4 hours reperfusion
[5] = i.v. 1 mg/kg just prior to reperfusion
[6] = prior to ischemia, i.v. 1 mg/kg or orally 10 mg/kg

With `CC(=O)N[C@@H](Cc1ccccc1)C(=O)N[C@H]1CCCNC(=O)[C@H](CCCNC(=N)N)NC(=O)[C@H](Cc2c[nH]c3ccccc23)NC(=O)[C@@H](CC2CCCCC2)NC(=O)[C@@H]2CCCN2C1=O` [Compound 1, Ac-Phe-[Orn-Pro-dCha-Trp-Arg]] the “neutropaenic effects of i.v. C5a” value (C5a-induced neutropenia) was “prevent the neutropaenic effects of C5a”, the “Plasma Creatinine” value [1, 2] was 1.07 ± 0.07 mg/dL and the Proteinuria [1, 2] was 36.4 ± 11.4 mg/dL. For the same molecule, the “Serum BUN” value [1, 2] was 23.6 ± 1.6 mg/dL, the “Serum Ca++” value [1, 2] was 2.46 ± 0.04 mmol/L and the “Serum K+” value [1, 2] was 6.13 ± 0.18 mmol/L. For the same molecule, the “Plasma Creatinine” value [1, 3] was 1.22 ± 0.05 mg/dL, the Proteinuria [1, 3] was 41.2 ± 11.4 mg/dL and the “Serum BUN” value [1, 3] was 22.0 ± 2.2 mg/dL. The “Serum Ca++” value [1, 3] was 2.45 ± 0.10 mmol/L, the “Serum K+” value [1, 3] was 5.02 ± 0.32 mmol/L and the “Plasma Creatinine” value [1, 4] was 1.14 ± 0.14 mg/dL. For the same molecule, the Proteinuria [1, 4] was 45.8 ± 9.8 mg/dL, the “Serum BUN” value [1, 4] was 21.8 ± 2.1 mg/dL and the “Serum Ca++” value [1, 4] was 2.49 ± 0.04 mmol/L. The “Serum K+” value [1, 4] was 5.57 ± 0.58 mmol/L, the “MPO activity in hindlimb muscles, lungs and liver vs I/R-only rats” value ([1]; all 3 drug-treated groups) was “significant decreases” and the “circulating PMN numbers vs I/R-only rats” value ([1]; all 3 drug-treated groups, 4 hours reperfusion) was “significantly decreased”. The “adverse effects of the drug alone (changes in injury markers vs sham-operated animals)” value ([1]; drug alone) was “no adverse effects”, the “circulating creatine kinase (CK) levels vs I/R-only rats” value [1, 5] was “significant inhibition” and the “circulating lactate dehydrogenase (LDH) levels vs I/R-only rats” value [1, 5] was “significant inhibition”. The “circulating creatine kinase (CK) levels vs I/R-only rats” value [1, 6] was “significantly decreased levels” and the “circulating lactate dehydrogenase (LDH) levels vs I/R-only rats” value [1, 6] was “significantly decreased levels”.

From patent US7579432B2, “Cyclic peptides as G-protein-coupled receptor antagonists” (Promics Pty Limited, priority 2001, dated 2009)
